From patent publication US9249163B2, “PDE10a inhibitors for the treatment of type II diabetes” (Janssen Pharmaceutica, NV, priority 2013, dated 2016)
Where a name gives a salt, the structure may show the parent alone.

Key:
[1] = target: Rat recombinant PDE10a (rPDE10a) (Rattus norvegicus (Rat), UniProt Q9QYJ6); assay: In vitro assay PDE10a (rat recombinant PDE10a, SPA); format: biochemical; conditions: 60 nM cAMP, 60 min at rt, read-out: rPDE10a2 IC50
Description: Rat recombinant PDE10a (rPDE10a) was expressed in Sf9 cells using a recombinant rPDE10a baculovirus construct. Cells were harvested after 48 h of infection and the rPDE10a protein was purified by metal chelate chromatography on Ni-sepharose 6FF. Tested compounds were dissolved and diluted in 100% DMSO to a concentration 100 fold of the final concentration in the assay. Compound dilutions (0.4 μL) were added in 384 well plates to 20 μL of incubation buffer (50 mM Tris pH 7.8, 8.3 mM MgCl2, 1.7 mM EGTA). 10 μL of rPDE10a enzyme in incubation buffer was added and the reaction was started by addition of 10 μL substrate to a final concentration of 60 nM cAMP and 0.008 μCi ^3H-cAMP. The reaction was incubated for 60 min at rt. After incubation, the reaction was stopped with 20 μL of 17.8 mg/mL PDE SPA beads. After sedimentation of the beads during 30 min the radioactivity was measured in a Perkin Elmer Topcount scintillation counter and results were expressed as cpm. For blank values the enzyme was omitted from the reaction and replaced by incubation buffer. Control values were obtained by addition of a final concentration of 1% DMSO instead of compound.

[2] = target: Human recombinant PDE10A2 (Homo sapiens (Human), UniProt Q9Y233); assay: In vitro hPDE10a (human recombinant PDE10A2, scintillation proximity assay); format: biochemical; conditions: human recombinant PDE10A2, 60 nM cAMP, 60 min at room temperature; read-out: hPDE10a2 IC50
Description: Human recombinant PDE10A2 was expressed in Sf9 cells, using a recombinant baculovirus construct containing the full length sequence containing a 6×His sequence following the start Met to allow metal affinity purification of the recombinant protein. Cells were harvested and the phosphodiesterase protein was purified by metal chelate chromatography on Ni-sepharose 6FF.
The affinity of the compounds of Formula (I) for phophodiesterases (PDE) was measured by a scintillation proximity assay (SPA). PDE Yttrium Silicate SPA beads allow PDE activity to be measured by direct binding of the primary phosphate groups of non-cyclic AMP or GMP to the beads via a complex iron chelation mechanism. The amount of bound tritiated product ([^3H]-AMP) is measured by liquid scintillation counting.
The compounds were dissolved and diluted in 100% DMSO in polystyrene plates to a concentration of 100-fold the final concentration in the assay. Human PDE10A enzyme solution (10 μL) was added to 20 μL, of incubation buffer (50 mM Tris pH 7.8, 8.3 mM MgCl2, 1.7 mM EGTA), 10 μL, substrate solution consisting of a mixture of non-tritiated and tritiated substrate (60 nM cAMP, 0.008 μCi ^3H-cAMP), and 0.4 μL, compound in 100% DMSO in a 384-well plate, and incubated for 60 min at room temperature. After incubation, the reaction was stopped with 20 μL, of stop solution, consisting of PDE SPA beads (17.8 mg beads/mL in 18 mM zinc sulphate). After sedimentation of the beads for 30 min, the radioactivity was measured in a Perkin Elmer Topcount scintillation counter and results were expressed as cpm. To measure the low control, no enzyme was added to the reaction mixture.
Data were calculated as the percentage of inhibition of total activity measured in the absence of test compound (% control).

Human recombinant PDE10A2, sequence (Q9Y233 267-1055): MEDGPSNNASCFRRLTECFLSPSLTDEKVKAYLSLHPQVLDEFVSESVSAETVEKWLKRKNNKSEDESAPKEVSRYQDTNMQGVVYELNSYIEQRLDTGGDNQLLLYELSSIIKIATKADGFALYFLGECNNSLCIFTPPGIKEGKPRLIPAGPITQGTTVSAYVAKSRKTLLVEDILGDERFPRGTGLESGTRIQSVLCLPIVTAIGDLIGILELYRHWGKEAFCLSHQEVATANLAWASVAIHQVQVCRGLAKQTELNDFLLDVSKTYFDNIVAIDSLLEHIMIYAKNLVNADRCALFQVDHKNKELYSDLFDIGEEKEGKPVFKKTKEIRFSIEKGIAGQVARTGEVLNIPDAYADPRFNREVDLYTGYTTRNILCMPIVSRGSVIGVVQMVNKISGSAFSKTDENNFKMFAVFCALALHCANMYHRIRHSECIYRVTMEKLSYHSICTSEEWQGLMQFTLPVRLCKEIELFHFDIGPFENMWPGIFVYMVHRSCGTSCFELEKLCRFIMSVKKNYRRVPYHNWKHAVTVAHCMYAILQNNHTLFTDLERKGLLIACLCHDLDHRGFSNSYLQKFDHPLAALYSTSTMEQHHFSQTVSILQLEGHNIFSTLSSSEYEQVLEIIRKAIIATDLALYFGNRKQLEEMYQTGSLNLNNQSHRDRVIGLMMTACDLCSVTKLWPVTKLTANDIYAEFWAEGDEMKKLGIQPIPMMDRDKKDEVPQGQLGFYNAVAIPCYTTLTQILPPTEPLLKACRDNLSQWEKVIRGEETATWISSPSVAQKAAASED
Rat recombinant PDE10a (rPDE10a), sequence (Q9QYJ6 whole entry): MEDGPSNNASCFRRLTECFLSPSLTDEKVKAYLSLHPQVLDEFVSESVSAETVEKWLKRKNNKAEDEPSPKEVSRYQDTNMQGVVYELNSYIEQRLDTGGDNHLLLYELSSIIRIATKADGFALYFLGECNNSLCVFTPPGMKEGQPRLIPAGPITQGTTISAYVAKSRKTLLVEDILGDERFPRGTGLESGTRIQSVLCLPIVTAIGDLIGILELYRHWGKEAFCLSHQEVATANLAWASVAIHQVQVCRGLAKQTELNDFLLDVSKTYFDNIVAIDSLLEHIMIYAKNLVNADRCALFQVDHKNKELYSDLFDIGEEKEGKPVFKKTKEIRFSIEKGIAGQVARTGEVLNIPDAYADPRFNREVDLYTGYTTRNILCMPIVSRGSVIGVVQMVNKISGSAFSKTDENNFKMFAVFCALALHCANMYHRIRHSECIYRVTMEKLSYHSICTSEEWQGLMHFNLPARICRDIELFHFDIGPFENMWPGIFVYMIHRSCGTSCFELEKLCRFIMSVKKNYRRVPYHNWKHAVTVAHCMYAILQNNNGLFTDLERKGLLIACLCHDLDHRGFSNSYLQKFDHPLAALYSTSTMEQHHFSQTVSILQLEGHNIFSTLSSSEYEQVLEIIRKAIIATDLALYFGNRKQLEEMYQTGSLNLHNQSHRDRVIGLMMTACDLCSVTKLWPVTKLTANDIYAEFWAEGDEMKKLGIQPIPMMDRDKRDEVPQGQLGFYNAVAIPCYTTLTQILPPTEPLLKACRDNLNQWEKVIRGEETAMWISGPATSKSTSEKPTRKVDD

IC50 [1] [µM] | IC50 [2] [µM] | Structure (SMILES)
0.022 | 0.013 | O=c1[nH]c2ccc(-c3cnc(N4CCOCC4)c4nc(CCc5ccc6ccccc6n5)cn34)cc2o1 [Cpd 64, 6-(8-morpholino-2-(2-(quinolin-2-yl)ethyl)imidazo[1,2-a]pyrazin-5-yl)benzo[d]oxazol-2(3H)-one trifluoroacetic acid salt]
0.06 | 0.038 | O=c1[nH]ncn1-c1ccc(-c2cnc(N3CCOCC3)c3nc(CCc4ccc5ccccc5n4)cn23)cc1 [Cpd 65, 4-(4-(8-Morpholino-2-(2-(quinolin-2-yl)ethyl)imidazo[1,2-a]pyrazin-5-yl)phenyl)-1H-1,2,4-triazol-5(4H)-one]
0.004 | 0.005 | c1ccc2nc(CCc3cn4c(-c5ccc(-c6nnc[nH]6)nc5)cnc(N5CCOCC5)c4n3)ccc2c1 [Cpd 67, 4-(5-(6-(4H-1,2,4-Triazol-3-yl)pyridin-3-yl)-2-(2-(quinolin-2-yl)ethyl)imidazo[1,2-a]pyrazin-8-yl)morpholine]
0.001 | 0.002 | c1ccc2nc(SCc3cn4c(-c5ccc(-c6nnn[nH]6)nc5)cnc(N5CCOCC5)c4n3)ccc2c1 [Cpd 70, 4-(5-(6-(1H-Tetrazol-5-yl)pyridin-3-yl)-2-((quinolin-2-ylthio)methyl)imidazo[1,2-a]pyrazin-8-yl)morpholine]
0.063 | 0.044 | O=C(Nc1ccc(-c2cnc(N3CCOCC3)c3nc(/C=C/c4ccc5ccccc5n4)cn23)cc1)N(CCO)CCO [Cpd 71, (E)-1,1-bis(2-hydroxyethyl)-3-(4-(8-morpholino-2-(2-(quinolin-2-yl)vinyl)imidazo[1,2-a]pyrazin-5-yl)phenyl)urea]
0.046 | 0.031 | O=C(NCCO)Nc1ccc(-c2cnc(N3CCOCC3)c3nc(/C=C/c4ccc5ccccc5n4)cn23)cc1 [Cpd 72, (E)-1-(2-Hydroxyethyl)-3-(4-(8-morpholino-2-(2-(quinolin-2-yl)vinyl)imidazo[1,2-a]pyrazin-5-yl)phenyl)urea]
0.04 | 0.026 | O=S(=O)(NCCO)c1ccc(-c2cnc(N3CCOCC3)c3nc(/C=C/c4ccc5ccccc5n4)cn23)cc1 [Cpd 73, (E)-N-(2-Hydroxyethyl)-4-(8-morpholino-2-(2-(quinolin-2-yl)vinyl)imidazo[1,2-a]pyrazin-5-yl)benzenesulfonamide]
< 0.001 | < 0.001 | Oc1nc(-c2cnc(N3CCOCC3)c3nc(COc4ccc5ccccc5n4)cn23)no1 [Cpd 75, 3-(8-Morpholino-2-((quinolin-2-yloxy)methyl)imidazo[1,2-a]pyrazin-5-yl)-1,2,4-oxadiazol-5-ol]
< 0.03 | 0.001 | c1ccc2nc(CCc3cn4c(-c5ccc(-c6nnn[nH]6)nc5)cnc(N5CCOCC5)c4n3)ccc2c1 [Cpd 77, 4-(5-(6-(1H-Tetrazol-5-yl)pyridin-3-yl)-2-(2-(quinolin-2-yl)ethyl)imidazo[1,2-a]pyrazin-8-yl)morpholine]
< 0.001 | 0.001 | CS(=O)(=O)Nc1ccc(-c2cnc(N3CCOCC3)c3nc(CCc4ccc5ccccc5n4)cn23)cn1 [Cpd 78, N-(5-(8-Morpholino-2-(2-(quinolin-2-yl)ethyl)imidazo[1,2-a]pyrazin-5-yl)pyridin-2-yl)methanesulfonamide]
0.033 | 0.007 | Oc1nc2ncc(-c3cnc(N4CCOCC4)c4nc(CCc5ccc6ccccc6n5)cn34)cc2[nH]1 [Cpd 79, 6-(8-Morpholino-2-(2-(quinolin-2-yl)ethyl)imidazo[1,2-a]pyrazin-5-yl)-1H-imidazo[4,5-b]pyridin-2-ol]
0.091 | 0.245 | COc1cc(-c2ncc(-c3ccc(N4CCNCC4)nc3)n3cc(/C=C/c4ccc5ccccc5n4)nc23)ccn1 [Cpd 81]
0.245 | 0.282 | COc1cc(-c2ncc(-c3ccc(N4CCNCC4)nc3)n3cc(COc4ccc5ccccc5n4)nc23)ccn1 [Cpd 82]
0.008 | 0.016 | NC(=O)c1ccc(-c2cnc(N3CCOCC3)c3nc(COc4ccc5ccccc5n4)cn23)cn1 [Cpd 84, 5-(8-Morpholino-2-((quinolin-2-yloxy)methyl)imidazo[1,2-a]pyrazin-5-yl)picolinamide]
0.002 | 0.001 | CS(=O)(=O)Nc1ccc(-c2cnc(N3CCOCC3)c3nc(COc4ccc5ccccc5n4)cn23)cn1 [Cpd 85, N-(5-(8-Morpholino-2-((quinolin-2-yloxy)methyl)imidazo[1,2-a]pyrazin-5-yl)pyridin-2-yl)methanesulfonamide]
0.016 | 0.014 | NS(=O)(=O)c1ccc(-c2cnc(N3CCOCC3)c3nc(COc4ccc5ccccc5n4)cn23)cn1 [Cpd 86, 5-(8-Morpholino-2-((quinolin-2-yloxy)methyl)imidazo[1,2-a]pyrazin-5-yl)pyridine-2-sulfonamide trifluoroacetic acid salt]
0.002 | 0.001 | NS(=O)(=O)c1ccc(-c2cnc(N3CCOCC3)c3nc(COc4ccc5ccccc5n4)cn23)cc1 [Cpd 87, 4-(8-Morpholino-2-((quinolin-2-yloxy)methyl)imidazo[1,2-a]pyrazin-5-yl)benzenesulfonamide]
0.012 | 0.009 | CC(=O)NS(=O)(=O)c1ccc(-c2cnc(N3CCOCC3)c3nc(COc4ccc5ccccc5n4)cn23)cc1 [Cpd 88, N-((4-(8-Morpholino-2-((quinolin-2-yloxy)methyl)imidazo[1,2-a]pyrazin-5-yl)phenyl)sulfonyl)acetamide]
0.001 | 0.002 | c1ccc2nc(OCc3cn4c(-c5ccc(-c6nnn[nH]6)cc5)cnc(N5CCOCC5)c4n3)ccc2c1 [Cpd 90, 4-(5-(4-(1H-Tetrazol-5-yl)phenyl)-2-((quinolin-2-yloxy)methyl)imidazo[1,2-a]pyrazin-8-yl)morpholine]
0.003 | 0.008 | Oc1nc2ncc(-c3cnc(N4CCOCC4)c4nc(/C=C/c5ccc6ccccc6n5)cn34)cc2[nH]1 [Cpd 94, (E)-6-(8-Morpholino-2-(2-(quinolin-2-yl)vinyl)imidazo[1,2-a]pyrazin-5-yl)-3H-imidazo[4,5-b]pyridin-2-ol]
< 0.001 | 0.003 | C(=C\c1cn2c(-c3ccc(-c4nnn[nH]4)nc3)cnc(N3CCOCC3)c2n1)/c1ccc2ccccc2n1 [Cpd 96, (E)-4-(5-(6-(1H-Tetrazol-5-yl)pyridin-3-yl)-2-(2-(quinolin-2-yl)vinyl)imidazo[1,2-a]pyrazin-8-yl)morpholine]
0.052 | 0.058 | c1ccc2nc(SCc3cn4c(-c5ccc(N6CCNCC6)nc5)cnc(N5CCOCC5)c4n3)ccc2c1 [Cpd 98, 4-(5-(6-(piperazin-1-yl)pyridin-3-yl)-2-((quinolin-2-ylthio)methyl)imidazo[1,2-a]pyrazin-8-yl)morpholine trifluoroacetic acid salt]
0.204 | 0.224 | c1ccc2nc(N3CC(c4cn5c(-c6ccc(N7CCNCC7)nc6)cnc(N6CCOCC6)c5n4)C3)ccc2c1 [Cpd 99, 4-(5-(6-(piperazin-1-yl)pyridin-3-yl)-2-(1-(quinolin-2-yl)azetidin-3-yl)imidazo[1,2-a]pyrazin-8-yl)morpholine]

Structure (SMILES) | IC50 [1] [µM] | IC50 [2] [µM]
O=C(O)CNc1ccc(-c2cnc(N3CCOCC3)c3nc(/C=C/c4ccc5ccccc5n4)cn23)cn1 [Cpd 66, (E)-2-(5-(8-Morpholino-2-(2-(quinolin-2-yl)vinyl)imidazo[1,2-a]pyrazin-5-yl)pyridin-2-ylamino)acetic acid trifluoroacetic acid salt] | 0.003 | 0.002
C(=C\c1cn2c(-c3ccc(N4CCNCC4)nc3)cnc(C3CCOCC3)c2n1)/c1ccc2ccccc2n1 [Cpd 80, (E)-2-(2-(5-(6-(piperazin-1-yl)pyridin-3-yl)-8-(tetrahydro-2H-pyran-4-yl)imidazo[1,2-a]pyrazin-2-yl)vinyl)quinoline trifluoroacetic acid salt] | 0.562 | 0.617
